# Results from patent publication US20260374739A1, “SMALL MOLECULAR WEIGHT CHEMICAL COMPOUND TO ANTAGONIZE EPH-EPHRIN TETRAMERIZATION AND INHIBIT BIDIRECTIONAL SIGNALING” (THE BOARD OF REGENTS OF THE UNIVERSITY OF TEXAS SYSTEM, priority 2022, published 2026).
# Where “and” joins values, the source holds several entries; their conditions need not be identical. Identical values can stand only once. Entries after “also recorded” stand apart in the source; their conditions may differ. Marks after values point to notes of the source that are not given here.
# Experiments:
# EphrinB2-EphB2 [1] = molecular target: T1, EphrinB2-EphB2 (Homo sapiens, UniProt P29323); experiment: Octet tetramerization inhibition, immobilized human EphrinB2 binding to 50 nM soluble human EphB2
# T1 construct: soluble human EphB1-His, EphB2-His, and EphB4-His ectodomains; commercially available human EphrinB1-Fc (EB1), EphrinB2-Fc (EB2), and EphrinB3-Fc (EB3) ectodomain proteins; purchased
# T1 sequence (P29323 19-543 limits assumed): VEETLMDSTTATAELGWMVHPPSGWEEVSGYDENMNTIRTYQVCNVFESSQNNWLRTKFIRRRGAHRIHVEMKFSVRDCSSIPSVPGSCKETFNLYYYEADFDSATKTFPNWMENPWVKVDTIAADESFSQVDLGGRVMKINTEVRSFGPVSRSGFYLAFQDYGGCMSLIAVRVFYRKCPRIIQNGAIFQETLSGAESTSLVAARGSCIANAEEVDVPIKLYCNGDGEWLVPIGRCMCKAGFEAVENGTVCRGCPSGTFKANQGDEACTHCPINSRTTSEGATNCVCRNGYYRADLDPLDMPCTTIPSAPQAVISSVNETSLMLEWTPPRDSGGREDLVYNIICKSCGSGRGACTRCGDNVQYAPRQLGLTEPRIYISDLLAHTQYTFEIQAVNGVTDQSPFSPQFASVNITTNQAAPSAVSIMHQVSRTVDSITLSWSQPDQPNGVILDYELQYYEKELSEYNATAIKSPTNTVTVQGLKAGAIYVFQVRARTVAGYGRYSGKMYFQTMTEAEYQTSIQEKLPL
# EphrinB2-EphB1 = molecular target: T2, EphrinB2-EphB1 (Homo sapiens, UniProt P54762); experiment: Octet 80 sec association/500 sec dissociation, immobilized human EphrinB2-Fc binding to soluble human EphB1-His; details: immobilized human EphrinB2, 25 nM soluble human EphB1
# T2 construct: soluble human EphB1-His, EphB2-His, and EphB4-His ectodomains; commercially available human EphrinB1-Fc (EB1), EphrinB2-Fc (EB2), and EphrinB3-Fc (EB3) ectodomain proteins; purchased
# T2 sequence (P54762 18-540 limits assumed): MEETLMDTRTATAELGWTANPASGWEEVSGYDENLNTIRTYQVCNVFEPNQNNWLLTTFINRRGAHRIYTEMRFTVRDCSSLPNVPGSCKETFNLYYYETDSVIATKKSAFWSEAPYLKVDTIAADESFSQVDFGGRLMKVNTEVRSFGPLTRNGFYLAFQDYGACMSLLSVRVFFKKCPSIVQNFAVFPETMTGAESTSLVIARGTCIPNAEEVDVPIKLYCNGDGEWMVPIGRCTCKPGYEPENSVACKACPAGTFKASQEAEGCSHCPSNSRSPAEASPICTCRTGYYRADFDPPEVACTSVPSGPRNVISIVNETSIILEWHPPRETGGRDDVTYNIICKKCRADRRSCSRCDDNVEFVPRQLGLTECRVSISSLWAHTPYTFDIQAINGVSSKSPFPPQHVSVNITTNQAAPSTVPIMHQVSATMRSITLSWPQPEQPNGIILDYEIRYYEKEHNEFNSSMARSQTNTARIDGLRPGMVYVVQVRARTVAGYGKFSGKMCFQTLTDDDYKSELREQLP
# Description: (§1) In another experiment, whether certain A20 analogs might have specificity for different Eph receptors was tested. An Octet RED384 system was used to obtain biophysical ON-OFF binding data (association-dissociation) for the three different human EphrinB2-EphB1, EphrinB2-EphB2, and EphrinB2-EphB4 protein-protein interactions and to assess the effect of A20 chemicals on the binding kinetics.
# (§2) FIGS. 72A-72C show three example Octet sensorgram response traces for the immobilized human EphrinB2 ectodomain protein binding to soluble forms of the human EphB1, EphB2, and EphB4 ectodomain proteins, in the absence or presence of an A20 chemical (buffer conditions are always PBSTD:PBS with 0.05% Tween-20, 1% DMSO, and +/− indicated chemical). After loading EphrinB2-Fc protein to Octet AHC biosensors, washing, and obtaining stable baseline measurements in the appropriate PBSTD (either with or without indicated chemical), the sensors are placed in its buffer that also contains the indicated soluble EphB protein for the association step (0-80″), and then returned to its buffer for the dissociation step (81″-580″). In each figure (FIGS. 72A-72C), a sensorgram run using 10 μM of the 2×HCl salt form of A20-I is compared to the no compound control run to exemplify the maximum level of reduced response signal typically obtained with a potent A20 chemical.
# (§3) Because the response levels during the dissociation step plateau for the EphrinB2-EphB2 and EphrinB2-EphB1 interactions by the first 80″, AUCs were also calculated for run data encompassing the first 160″ of each experiment to account for both the 80″ association data (red asterisks) and the first 80″ of dissociation data (marked by green line and asterisks).
# (§4) The selectivity of another A20 analog (a 3×HCL salt form of compound BQPB4) in comparison to previously tested compound, A20-1, was tested as described in Example 27 above.
# (§5) Further to the experiments listed above, a series of dose-response experiments were conducted to determine the IC50 of a selected A20 chemical (A20-1) on the kinetics of human EphrinB2 ligand ectodomain protein binding to its cognate human EphB1, EphB2, and EphB4 receptor ectodomain proteins. FIG. 74A-74C are representative sensorgrams showing the effect of 0, 0.1, 0.2, 0.4, 0.8, 1.6, and 3.2 μM, concentrations of the 2×HCl salt of A20-I along with a 10 μM max standard (also A20-1) on three different Ephrin-EphB interactions (e.g., EphB1 in FIG. 74A, EphB2 in FIG. 74B and EphB4 in FIG. 74C). […] Additional IC50 values were determined at specific timepoints, at 75″ into the association step and at 55″ into the dissociation step (135″).
# (§6) All absolute and relative IC50 values are provided in the Table 6 below, where absolute are based off the full binding sensorgram traces, and relative are based off of the max control traces.
# (§7) In another experiment, the % inhibition for various A20 analog chemicals against the three different EphrinB2-EphB protein interactions was determined. Specifically, the percent inhibition for immobilized human EphrinB2-Fc binding to 25 nM soluble human EphB1-His (FIG. 76A, enlarged in FIG. 76D), EphB2-His (FIG. 76B, enlarged in FIG. 76E), and EphB4-His (FIG. 76C, enlarged in FIG. 76F) with 3511-I, 8009-9255, QTM-Br, A19, A19-NO2, and IM (all at 3.2 μM) was determined.
# EphrinB2-EphB2 [2] = molecular target: T1, EphrinB2-EphB2; experiment: Octet 80 sec association/500 sec dissociation, immobilized human EphrinB2-Fc binding to soluble human EphB2-His; details: immobilized human EphrinB2, 25 nM soluble human EphB2; for EphB2 Inhibition Percent, Inhibition of Association ONLY: at 3.2 μM and 80 seconds; for EphB2 Inhibition Percent, Inhibition of Association-Dissociation: at 3.2 μM and 580 seconds
# Description: as §1, §2, §3, §4, §5, §6, §7
# EphrinB2-EphB4 = molecular target: T3, EphrinB2-EphB4 (Homo sapiens, UniProt P54760); experiment: Octet 80 sec association/500 sec dissociation, immobilized human EphrinB2-Fc binding to soluble human EphB4-His; details: for selectivity among EphrinB2-EphB1/B2/B4: 3.2 μM
# T3 construct: soluble human EphB1-His, EphB2-His, and EphB4-His ectodomains; commercially available human EphrinB1-Fc (EB1), EphrinB2-Fc (EB2), and EphrinB3-Fc (EB3) ectodomain proteins; purchased
# T3 sequence (P54760 16-539 limits assumed): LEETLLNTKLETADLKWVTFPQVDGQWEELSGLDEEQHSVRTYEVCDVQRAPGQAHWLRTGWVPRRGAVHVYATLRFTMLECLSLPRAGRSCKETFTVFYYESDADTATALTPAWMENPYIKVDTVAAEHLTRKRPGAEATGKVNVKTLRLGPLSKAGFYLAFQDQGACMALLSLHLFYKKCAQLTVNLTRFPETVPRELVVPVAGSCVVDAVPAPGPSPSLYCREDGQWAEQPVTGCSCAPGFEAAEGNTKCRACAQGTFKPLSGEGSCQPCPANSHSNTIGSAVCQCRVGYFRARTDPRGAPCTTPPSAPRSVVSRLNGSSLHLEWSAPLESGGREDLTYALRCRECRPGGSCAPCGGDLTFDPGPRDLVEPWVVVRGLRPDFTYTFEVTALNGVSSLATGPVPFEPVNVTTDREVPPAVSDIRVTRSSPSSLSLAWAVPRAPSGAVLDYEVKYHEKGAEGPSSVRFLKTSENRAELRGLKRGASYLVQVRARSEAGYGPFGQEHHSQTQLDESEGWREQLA
# Description: as §1, §2, §3, §4, §5, §6, §7
# [3] = Absolute AUC/IC50, Table A, EphrinB2-EphB2
# [4] = Absolute Association IC50 (300 sec), Table A, EphrinB2-EphB2
# [5] = Absolute Dissociation IC50 (450 sec), Table A, EphrinB2-EphB2
# [6] = Relative AUC/IC50, Table A, EphrinB2-EphB2, compound 7: association only
# [7] = Relative Association IC50 (300 sec), Table A, EphrinB2-EphB2
# [8] = Relative Dissociation IC50 (450 sec), Table A, EphrinB2-EphB2
# [9] = tetramerization inhibitor IC50 (relative), association step, surmountable tetramer
SMILES,IC50 (EphrinB2-EphB2 [1]; [3]),IC50 (EphrinB2-EphB2 [1]; [4]),IC50 (EphrinB2-EphB2 [1]; [5]),IC50 (EphrinB2-EphB2 [1]; [6]),IC50 (EphrinB2-EphB2 [1]; [7]),IC50 (EphrinB2-EphB2 [1]; [8]),IC50 (EphrinB2-EphB2 [1]; [9]),tetramerization inhibitor activity (EphrinB2-EphB2 [1]),"disruption of unsurmountable tetramer (EphrinB2-EphB2 [1]; 0.8-3.2 μM, listed as QPB-NO4)","EphB1 Inhibition Percent, Inhibition of Association ONLY (EphrinB2-EphB1; at 3.2 μM and 80 seconds)","EphB1 Inhibition Percent, Inhibition of Association-Dissociation (EphrinB2-EphB1; at 3.2 μM and 580 seconds)","EphB2 Inhibition Percent, Inhibition of Association ONLY (EphrinB2-EphB2 [2])","EphB2 Inhibition Percent, Inhibition of Association-Dissociation (EphrinB2-EphB2 [2])",selectivity among EphrinB2-EphB1/B2/B4 (EphrinB2-EphB4),"EphB4 Inhibition Percent, Inhibition of Association ONLY (EphrinB2-EphB4; at 3.2 μM and 80 seconds, immobilized human EphrinB2, 25 nM soluble human EphB4)","EphB4 Inhibition Percent, Inhibition of Association-Dissociation (EphrinB2-EphB4; at 3.2 μM and 580 seconds, immobilized human EphrinB2, 25 nM soluble human EphB4)"
"Oc1ccc(CN2CCOCC2)c2cccnc12 [Compound 2, 4-((8-hydroxyquinolin-1-ium-5-yl)methyl)morpholin-4-ium chloride]",> 6400 nM,> 6400 nM,> 6400 nM,2290 nM,2090 nM,2750 nM,,,,,,,,,,
"O=S1(=O)CCN(Cc2cc(I)c(O)c3ncccc23)CC1 [Compound 18, 4-((8-hydroxy-7-iodoquinolin-5-yl)methyl)thiomorpholine 1,1-dioxide]",,,,,,,~800 nM,,,,,,,,,
"Oc1ccc(CN2CCN(c3ccccc3)CC2)c2cccnc12 [Compound 22, 5-((4-phenylpiperazin-1-yl)methyl)quinolin-8-ol]",> 3200 nM,> 3200 nM,> 3200 nM,,3000 nM,,~3000 nM,,,,,,,,,
"Oc1ccc(CN2CCN(c3ccc(I)cc3)CC2)c2cccnc12 [Compound 31, 5-((4-(4-iodophenyl)piperazin-1-yl)methyl)quinolin-8-ol]",,,,,,,,appeared less potent,,,,,,,,
"O=[N+]([O-])c1ccc(N2CCN(Cc3ccc(O)c4ncccc34)CC2)cc1 [Compound 37, 5-((4-(4-nitrophenyl)piperazin-1-yl)methyl)quinolin-8-ol]",,,,,,,~1600 nM,,slight ability to disrupt the unsurmountable tetramer; also recorded: able to inhibit a small amount of the EphrinB2-EphB2 unsurmountable tetramer,,,,,,,
"Oc1ccc(CN2CCN(Cc3ccc(Br)cc3)CC2)c2cccnc12 [Compound 43, 5-((4-(4-bromobenzyl)piperazin-1-ium-1-yl)methyl)-8-hydroxyquinolin-1-ium chloride]",3090 nM and 3240 nM,2700 nM and 2750 nM,2820 nM and 3010 nM,2240 nM,1950 nM,2340 nM and 2140 nM,,,,19.9% and 33.5%,36.5% and 47.3%,37.8% and 62.3%,56.3% and 75.4%,,,
"CC(=O)Nc1ccc(N2CCN(Cc3ccc(O)c4ncccc34)CC2)cc1 [Compound 50, N-(4-(4-((8-hydroxyquinolin-5-yl)methyl)piperazin-1-yl)phenyl)acetamide]",> 3200 nM,> 3200 nM,> 3200 nM,,2770 nM,1950 nM,> 3000 nM,,,,,,,,,
"O=C(Cc1ccccc1)Nc1ccc(N2CCN(Cc3cc(Br)c(O)c4ncccc34)CC2)cc1 [Compound 52, N-(4-(4-((7-bromo-8-hydroxyquinolin-5-yl)methyl)piperazin-1-yl)phenyl)-2-phenylacetamide]",> 3200 nM,> 3200 nM,> 3200 nM,> 3200 nM,3310 nM,> 3200 nM,> 3000 nM,,,,,,,less action toward EphB4 and EphB2 but high specificity for EphB1,,
"Cc1ccc2c(CN3CCN(c4ccc(Br)cc4)CC3)ccc(O)c2n1 [Compound 60, 5-((4-(4-bromophenyl)piperazin-1-yl)methyl)-2-methylquinolin-8-ol]",> 3200 nM,> 3200 nM,> 3200 nM,> 3200 nM,> 3200 nM,> 3200 nM,,appears to eliminate tetramerization inhibitor activity,,,,,,,,
"COc1ccccc1N1CCN(Cc2ccc(O)c3ncccc23)CC1 [Compound 69, 5-((4-(2-methoxyphenyl)piperazin-1-yl)methyl)quinolin-8-ol]",> 3200 nM,> 3200 nM,> 3200 nM,2010 nM,2190 nM,1700 nM,,,,,,3.6% and 0%,19.2% and 15.5%,less action toward EphB4 and EphB2 but high specificity for EphB1,0*/0*%,2.2% and 0%
COc1ccc(N2CCN(Cc3cc(Br)c(O)c4ncccc34)CC2)cc1 [Compound 73],2290 nM,2510 nM,1510 nM,,1200 nM,1070 nM,,,,,,,,,,
